Data set [1] deals with T1, HIV-1 RT (Human immunodeficiency virus type 1 group M subtype B, UniProt P03366). Briefly: Homopolymer HIV Reverse Transcriptase Assay: Inhibitor IC50 Determination. Format: biochemical. As to conditions: purified recombinant enzyme, poly(rA)/oligo(dT)16 template-primer, [3H] dTTP, 37° C. 30 min. Here is the method:
Homopolymer HIV Reverse Transcriptase Assay: Inhibitor IC50 Determination
HIV-1 RT assay was carried out in 96-well Millipore MultiScreen MADVNOB50 plates using purified recombinant enzyme and a poly(rA)/oligo(dT)16 template-primer in a total volume of 50 μL. The assay constituents were 50 mM Tris/HCl, 50 mM NaCl, 1 mM EDTA, 6 mM MgCl2, 5 μM dTTP, 0.15 μCi [^3H] dTTP, 5 μg/ml poly (rA) pre annealed to 2.5 μg/ml oligo (dT)16 and a range of inhibitor concentrations in a final concentration of 10% DMSO. reactions were initiated by adding 4 nM HIV-1 RT and after incubation at 37° C. for 30 min, they were stopped by the addition of 50 μl ice cold 20%TCA and allowed to precipitate at 4° C. for 30 min. The precipitates were collected by applying vacuum to the plate and sequentially washing with 3×200 μl of 10% TCA and 2×200 μl 70% ethanol. Finally, the plates were dried and radioactivity counted in a Packard TopCounter after the addition of 25 μl scintillation fluid per well. IC50's were calculated by plotting % inhibition versus log10 inhibitor concentrations.

In data set [2] the target is T1, HIV-1 RT. The data set can be described thus: Heteropolymer HIV reverse Transcriptase Assay: Inhibitor IC50 Determination. The format is biochemical. As to conditions: RNA-dependent DNA polymerase activity, biotinylated DNA primer/RNA template, SPA beads, 30°C 30 min. On the procedure: Heteropolymer HIV reverse Transcriptase Assay: Inhibitor IC50 Determination
RNA-dependent DNA polymerase activity was measured using a biotinylated primer oligonucleotide and tritiated dNTP substrate. Newly synthesized DNA was quantified by capturing the biotinylated primer molecules on streptavidin coated Scintillation Proximity Assay (SPA) beads (Amersham). The sequences of the polymerase assay substrate were: 18nt DNA primer, 5′-Biotin/GTC CCT GTT CGG GCG CCA-3′ (SEQ. ID NO. 2); 47nt RNA template, 5′-GGGUCUCUCUGGUUAGACCACUCUAGCAGUGGCGCCCGAACAGGGAC-3′ (SEQ ID NO. 1). The biotinylated DNA primer was obtained from the Integrated DNA Technologies Inc. and the RNA template was synthesized by Dharmacon. The DNA polymerase assay (final volume 50 μl) contained 32 nM biotinylated DNA primer, 64 nM RNA substrate, dGTP, dCTP, dTTP (each at 5 μM), 103 nM [^3H]-dATP (specific activity=[…]), in 45 mM Tris-HCl, pH 8.0, 45 mM NaCl, 2.7 mM Mg(CH3COO)2, 0.045% Triton X-100 w/v, 0.9 mM EDTA. The reactions contained 5 μl of serial compound dilutions in 100% DMSO for IC50 determination and the final concentrations of DMSO were 10%. Reactions were initiated by the addition of 30 μl of the HIV-1-RT enzyme (final concentrations of 1-3 nM). Protein concentrations were adjusted to provide linear product formation for at least 30 min of incubation. After incubation at 30°C for 30 min, the reaction was quenched by addition of 50 μl of 200 mM EDTA (pH 8.0) and 2 mg/ml SA-PVT SPA beads (Amersham, RPNQ0009, reconstituted in 20 mM Tris-HCl, pH 8.0, 100 mM EDTA and 1% BSA). The beads were left to settle overnight and the SPA signals were counted in a 96-well top counter-NXT (Packard). IC50 values were obtained by sigmoidal regression analysis using GraphPad Prism 3.0 (GraphPad Software, Inc.).

Turning to `Cc1cc(C(=O)NS(C)(=O)=O)ccc1NC(=O)Cc1ccc(Br)c(Oc2cc(Cl)cc(C#N)c2)c1F` [Compound I-36, 2-[4-Bromo-3-(3-chloro-5-cyano-phenoxy)-2-fluoro-phenyl]-N-(4-methanesulfonylaminocarbonyl-2-methyl-phenyl)-acetamide], the melting point – broadly, the temperature, or range, at which the solid turns liquid – was in the range of 244.9 to 246.7 °C. Moreover, the half-inhibitory concentration (IC50) – broadly, the point on the concentration scale where inhibition reaches its midpoint – in data set [1] was 4.6 nM.
For `Cl.N#Cc1cc(Cl)cc(Oc2c(Br)ccc(CC(=O)Nc3ccc(C(=O)NCCN4CCC(F)(F)CC4)cc3Cl)c2F)c1` [Compound I-40, 4-{2-[4-Bromo-3-(3-chloro-5-cyano-phenoxy)-2-fluoro-phenyl]-acetylamino}-3-chloro-N-[2-(4,4-difluoro-piperidin-1-yl)-ethyl]-benzamide; hydrochloride salt], the melting point was in the range of 140.2 to 143.3 °C. The 50% inhibitory concentration (IC50) in data set [2] was 37 nM.
For `CC(C)(CN1CCCC1)NC(=O)c1ccc(NC(=O)Cc2ccc(Br)c(Oc3cc(Cl)cc(C#N)c3)c2F)c(Cl)c1` [Compound I-45, 4-{2-[4-Bromo-3-(3-chloro-5-cyano-phenoxy)-2-fluoro-phenyl]-acetylamino}-3-chloro-N-(1,1-dimethyl-2-pyrrolidin-1-yl-ethyl)-benzamide] the same measures were 70 °C and 4.1 nM.
In the same order, the values of `CN1CCC(NC(=O)c2ccc(NC(=O)Cc3ccc(Br)c(Oc4cc(Cl)cc(C#N)c4)c3F)c(Cl)c2)C1` (stereo not shown) [Compound I-50, 4-{2-[4-Bromo-3-(3-chloro-5-cyano-phenoxy)-2-fluoro-phenyl]-acetylamino}-3-chloro-N-(1-methyl-pyrrolidin-3-yl)-benzamide] are 204 °C and 6.9 nM.
In the same order, the values of `N#Cc1cc(Cl)cc(Oc2c(Br)ccc(CC(=O)Nc3ccc(C(=O)NC4CCS(=O)(=O)C4)cc3Cl)c2F)c1` (stereo not shown) [Compound I-55, 4-{2-[4-Bromo-3-(3-chloro-5-cyano-phenoxy)-2-fluoro-phenyl]-acetylamino}-3-chloro-N-(1,1-dioxo-tetrahydro-1λ^6-thiophen-3-yl)-benzamide] are 236.6 °C and 16.3 nM.
